Among the data in patent US10836725B2, “Modulators of the integrated stress pathway” (Calico Life Sciences LLC, priority 2016, dated 2020) are EC50 values, retold here.

Where only a bound is given, the exact number is not on record here.

The test concerns ATF4 luciferase reporter. In words: ATF4-Luc assay in HEK293T cells carrying the ATF4 luciferase reporter (in vitro model of VWMD). The format is cell-based, human. Conditions: Homo sapiens, HEK-293T, 1 μg/mL tunicamycin, 7 hours, luminescence (One Glo). On the procedure:
In order to test exemplary compounds of the invention in a cellular context, a stable VWMD cell line was first constructed. The ATF4 reporter was prepared by fusing the human full-length ATF4 5′-UTR (NCBI Accession No. BC022088.2) in front of the firefly luciferase (FLuc) coding sequence lacking the initiator methionine as described in Sidrauski et al (eLife 2013). The construct was used to produce recombinant retroviruses using standard methods and the resulting viral supernatant was used to transduce HEK293T cells, which were then subsequently selected with puromycin to generate a stable cell line.
HEK293T cells carrying the ATF4 luciferase reporter were plated on polylysine coated 384-well plates (Greiner Bio-one) at 30,000 cells per well. Cells were treated the next day with 1 μg/mL tunicamycin and 200 nM of a compound of Formula (I) for 7 hours. Luminescence was measured using One Glo (Promega) as specified by the manufacturer. Cells were maintained in DMEM with L-glutamine supplemented with 10% heat-inactivated FBS (Gibco) and Antibiotic-Antimycotic solution (Gibco).
Table 2 below summarizes the EC50 data obtained using the ATF4-Luc assay for exemplary compounds of the invention.
With `O=C(COc1ccc(Cl)c(F)c1)NC12CCC(C(=O)NCc3cocn3)(CC1)C(O)C2` (stereo not drawn) [Compound 115, 4-[2-(4-chloro-3-fluorophenoxy)acetamido]-2-hydroxy-N-[(1,3-oxazol-4-yl)methyl]bicyclo[2.2.2]octane-1-carboxamide], the EC50 is more than 2 µM.
Then `O=C(COc1ccc(Cl)c(F)c1)NC12CCC(C(=O)NCc3ccc(F)cc3)(CC1)C(O)C2` (stereo not drawn) [Compound 130, 4-[2-(4-chloro-3-fluorophenoxy)acetamido]-N-[(4-fluorophenyl)methyl]-2-hydroxybicyclo[2.2.2]octane-1-carboxamide], with less than 0.25 µM.
Take `O=C(COc1ccc(Cl)c(F)c1)NC12CC(C(=O)NCc3ccno3)(C1)C2` [Compound 222, 3-[2-(4-chloro-3-fluorophenoxy)acetamido]-N-[(1,2-oxazol-5-yl)methyl]bicyclo[1.1.1]pentane-1-carboxamide]: the EC50 is more than 2 µM.
Then `Cc1ccc(F)c(CNC(=O)C23CC(NC(=O)COc4ccc(Cl)c(F)c4)(C2)C3)c1` [Compound 174, 3-[2-(4-chloro-3-fluorophenoxy)acetamido]-N-[(2-fluoro-5-methylphenyl)methyl]bicyclo[1.1.1]pentane-1-carboxamide], with more than 2 µM; and `O=C(COc1ccc(Cl)c(F)c1)NC12CC(C(=O)NCc3ccon3)(C1)C2` [Compound 235, 3-[2-(4-chloro-3-fluorophenoxy)acetamido]-N-[(1,2-oxazol-3-yl]methyl]bicyclo[1.1.1]pentane-1-carboxamide], with more than 2 µM.
`O=C(COc1ccc(Cl)c(F)c1)NC12CC(C(=O)NCc3ccccc3F)(C1)C2` [Compound 210, 3-[2-(4-chloro-3-fluorophenoxy)acetamido]-N-[(2-fluorophenyl)methyl]bicyclo[1.1.1]pentane-1-carboxamide]: the EC50 was more than 2 µM.
Then `CS(=O)(=O)c1ccc(CNC(=O)C23CCC(NC(=O)COc4ccc(Cl)c(F)c4)(CC2)CC3O)nc1` (stereo not drawn) [Compound 121, 4-[2-(4-chloro-3-fluorophenoxy)acetamido]-2-hydroxy-N-{[5-(methanesulfonyl)pyridin-2-yl]methyl}bicyclo[2.2.2]octane-1-carboxamide], with more than 2 µM; and `O=C(COc1ccc(Cl)c(F)c1)NC12CC(C(=O)NCc3ccncc3)(C1)C2` [Compound 233, 3-[2-(4-chloro-3-fluorophenoxy)acetamido]-N-[(pyridin-4-yl]methyl]bicyclo[1.1.1]pentane-1-carboxamide], with more than 2 µM.
Then `CN(Cc1ccc(C(F)(F)F)cc1)C(=O)C12CCC(NC(=O)COc3ccc(Cl)c(F)c3)(CC1)CC2O` (stereo not drawn) [Compound 145, 4-[2-(4-chloro-3-fluorophenoxy)acetamido]-2-hydroxy-N-methyl-N-{[4-(trifluoromethyl)phenyl]methyl}bicyclo[2.2.2]octane-1-carboxamide], with less than 0.25 µM.
As to `O=C(COc1ccc(Cl)c(F)c1)NC12CC(C(=O)NCc3noc(-c4ccccc4)n3)(C1)C2` [Compound 201, 3-[2-(4-chloro-3-fluorophenoxy)acetamido]-N-[(5-phenyl-1,2,4-oxadiazol-3-yl)methyl]bicyclo[1.1.1]pentane-1-carboxamide], the EC50 was in the range of 1 to 2 µM.
Then `COCc1ccc(CNC(=O)C23CC(NC(=O)COc4ccc(Cl)c(F)c4)(C2)C3)cc1` [Compound 229, 3-[2-(4-chloro-3-fluorophenoxy)acetamido]-N-{[4-(methoxymethyl)phenyl]methyl]bicyclo[1.1.1]pentane-1-carboxamide], with more than 2 µM; and `O=C(COc1ccc(Cl)c(F)c1)NC12CCC(C(=O)NCc3ccc(Cl)cn3)(CC1)C(O)C2` (stereo not drawn) [Compound 108, 4-[2-(4-chloro-3-fluorophenoxy)acetamido]-N-[(5-chloropyridin-2-yl)methyl]-2-hydroxybicyclo[2.2.2]octane-1-carboxamide], with less than 0.25 µM.
Then `O=C(COc1ccc(Cl)c(F)c1)NC12CC(C(=O)NCc3cccc(F)c3)(C1)C2` [Compound 237, 3-[2-(4-chloro-3-fluorophenoxy)acetamido]-N-[(3-fluorophenyl)methyl]bicyclo[1.1.1]pentane-1-carboxamide], with more than 2 µM; and `O=C(COc1ccc(Cl)c(F)c1)NC12CCC(C(=O)NCc3ccc(OC(F)F)cn3)(CC1)C(O)C2` (stereo not drawn) [Compound 146, 4-[2-(4-chloro-3-fluorophenoxy)acetamido]-N-{[5-(difluoromethoxy)pyridin-2-yl]methyl}-2-hydroxybicyclo[2.2.2]octane-1-carboxamide], with less than 0.25 µM; and `Cc1nn(C)cc1CNC(=O)C12CC(NC(=O)COc3ccc(Cl)c(F)c3)(C1)C2` [Compound 152, 3-[2-(4-chloro-3-fluorophenoxy)acetamido]-N-[(1,3-dimethyl-1H-pyrazol-4-yl)methyl]bicyclo[1.1.1]pentane-1-carboxamide], with more than 2 µM.
Then `O=C(COc1ccc(F)cc1)NC12CCC(C(=O)NCc3ccc(C(F)(F)F)cn3)(CC1)C(O)C2` (stereo not drawn) [Compound 122, 4-[2-(4-fluorophenoxy)acetamido]-2-hydroxy-N-{[5-(trifluoromethyl)pyridin-2-yl]methyl}bicyclo[2.2.2]octane-1-carboxamide], with less than 0.25 µM; and `O=C(COc1ccc(Cl)c(F)c1)NC12CC(C(=O)NCc3ccccc3OCC(F)F)(C1)C2` [Compound 203, 3-[2-(4-chloro-3-fluorophenoxy)acetamido]-N-{[2-(2,2-difluoroethoxy)phenyl]methyl}bicyclo[1.1.1]pentane-1-carboxamide], with more than 2 µM.
With `Cc1ccc(CNC(=O)C23CC(NC(=O)COc4ccc(Cl)c(F)c4)(C2)C3)cn1` [Compound 155, 3-[2-(4-chloro-3-fluorophenoxy)acetamido]-N-[(6-methylpyridin-3-yl)methyl]bicyclo[1.1.1]pentane-1-carboxamide], the EC50 is more than 2 µM.
Consider `O=C(COc1ccc(Cl)c(F)c1)NC12CC(C(=O)NCCc3ccncc3)(C1)C2` [Compound 234, 3-[2-(4-chloro-3-fluorophenoxy)acetamido]-N-[2-(pyridin-4-yl)ethyl]bicyclo[1.1.1]pentane-1-carboxamide], for which the EC50 was more than 2 µM.
Then `O=C(COc1ccc(Cl)c(F)c1)NC12CC(C(=O)NCc3ccc(SC(F)(F)F)cc3)(C1)C2` [Compound 246, 3-[2-(4-chloro-3-fluorophenoxy)acetamido]-N-({4-[(trifluoromethyl)sulfanyl]phenyl}methyl)bicyclo[1.1.1]pentane-1-carboxamide], with more than 2 µM.
Consider `CC(NC(=O)C12CC(NC(=O)COc3ccc(Cl)c(F)c3)(C1)C2)c1ccccc1` (stereo not drawn) [Compound 172, 3-[2-(4-chloro-3-fluorophenoxy)acetamido]-N-(1-phenylethyl)bicyclo[1.1.1]pentane-1-carboxamide], for which the EC50 was more than 2 µM.
For `Cc1cc(CCNC(=O)C23CC(NC(=O)COc4ccc(Cl)c(F)c4)(C2)C3)cc(C)n1` [Compound 211, 3-[2-(4-chloro-3-fluorophenoxy)acetamido]-N-[2-(2,6-dimethylpyridin-4-yl)ethyl]bicyclo[1.1.1]pentane-1-carboxamide], the EC50 was in the range of 1 to 2 µM.
Then `Cc1occc1CNC(=O)C12CC(NC(=O)COc3ccc(Cl)c(F)c3)(C1)C2` [Compound 244, 3-[2-(4-chloro-3-fluorophenoxy)acetamido]-N-[(2-methylfuran-3-yl)methyl]bicyclo[1.1.1]pentane-1-carboxamide], with more than 2 µM.
As to `CC(C)Oc1ccc(CNC(=O)C23CC(NC(=O)COc4ccc(Cl)c(F)c4)(C2)C3)cc1` [Compound 207], the EC50 is more than 2 µM.
Then `O=C(COc1ccc(Cl)c(F)c1)NC12CC(C(=O)NCc3ccc(F)c(C(F)(F)F)c3)(C1)C2` [Compound 180, 3-[2-(4-chloro-3-fluorophenoxy)acetamido]-N-{[4-fluoro-3-(trifluoromethyl)phenyl]methyl}bicyclo [1.1.1]pentane-1-carboxamide], with more than 2 µM; and `O=C(COc1ccc(F)cc1)NC12CCC(C(=O)NCc3ccc(C(F)(F)F)cc3)(CC1)C(O)C2` (stereo not drawn) [Compound 123, 4-[2-(4-fluorophenoxy)acetamido]-2-hydroxy-N-{[4-(trifluoromethyl)phenyl]methyl}bicyclo[2.2.2]octane-1-carboxamide], with less than 0.25 µM; and `Cc1cccc(-c2nc(CNC(=O)C34CC(NC(=O)COc5ccc(Cl)c(F)c5)(C3)C4)cs2)c1` [Compound 214, 3-[2-(4-chloro-3-fluorophenoxy)acetamido]-N-{[2-(3-methylphenyl)-1,3-thiazol-4-yl]methyl}bicyclo[1.1.1]pentane-1-carboxamide], with more than 2 µM.
On to `O=C(COc1ccc(Cl)c(F)c1)NC12CC(C(=O)NCc3nccs3)(C1)C2` [Compound 208, 3-[2-(4-chloro-3-fluorophenoxy)acetamido]-N-[(1,3-thiazol-2-yl)methyl]bicyclo[1.1.1]pentane-1-carboxamide], for which the EC50 was more than 2 µM.
Then `COc1cccc(CNC(=O)C23CC(NC(=O)COc4ccc(Cl)c(F)c4)(C2)C3)c1` [Compound 216, 3-[2-(4-chloro-3-fluorophenoxy)acetamido]-N-[(3-methoxyphenyl)methyl]bicyclo[1.1.1]pentane-1-carboxamide], with more than 2 µM; and `CC(C)c1ccc(CNC(=O)C23CC(NC(=O)COc4ccc(Cl)c(F)c4)(C2)C3)cc1` [Compound 227, 3-[2-(4-chloro-3-fluorophenoxy)acetamido]-N-{[4-(propan-2-yl)phenyl]methyl}bicyclo[1.1.1]pentane-1-carboxamide], with more than 2 µM.
